Each block holds one compound with its values, some of them ahead of it.
Legend:
[1] = target: T1, TsOYE (Thermus scotoductus, UniProt B0JDW3); assay: bioconversion to 7b, HPLC; assay type: biochemical; settings: 10 mM substrate, 5 μM enzyme, 11 mM NADPH, 2% DMSO, pH 7.0, 30 °C, 6 h
T1 construct: gene chrR; wild type, pET-28a(+), E. coli BL21 Gold(DE3), N-terminal His-tag, heat purified (70 °C)

[2] = target: T2, XenA (Pseudomonas putida, UniProt Q9R9V9); assay: bioconversion to 7b, HPLC; assay type: biochemical; settings: 10 mM substrate, 5 μM enzyme, 11 mM NADPH, 2% DMSO, pH 7.0, 30 °C, 6 h
T2 construct: recombinant in-house enzyme; details in supplement

[3] = target: T3, GluER (Gluconobacter oxydans, UniProt Q5FTL6); assay: bioconversion to 7b and 7c, HPLC / GC; assay type: biochemical; settings: 10 mM substrate, 5 μM enzyme, 1.1 eq. NADPH, 2% DMSO, pH 7.0, 30 °C, 6 h
T3 construct: gene GOX0502; wild type, N-terminal His-tag (pET-28a(+)), E. coli BL21 Gold(DE3), IMAC, FMN-loaded

[4] = target: T4, OYE2 (Saccharomyces cerevisiae, UniProt Q03558); assay: bioconversion to 7b, HPLC; assay type: biochemical; settings: 10 mM substrate, 5 μM enzyme, 11 mM NADPH, 2% DMSO, pH 7.0, 30 °C, 6 h
T4 construct: wild type, N-terminal His-tag (pET-28a(+)), E. coli BL21 Gold(DE3), IMAC, FMN-loaded

[5] = target: T5, PETNR (Enterobacter cloacae, UniProt P71278); assay: bioconversion to 7b, HPLC; assay type: biochemical; settings: 10 mM substrate, 5 μM enzyme, 11 mM NADPH, 2% DMSO, pH 7.0, 30 °C, 6 h
T5 construct: gene onr; recombinant in-house enzyme; details in supplement

[6] = target: T6, EPB1 (Candida albicans, UniProt A0A1D8PPK1); assay: bioconversion to 7b, HPLC; assay type: biochemical; settings: 10 mM substrate, 5 μM enzyme, 11 mM NADPH, 2% DMSO, pH 7.0, 30 °C, 6 h
T6 construct: gene EBP1; wild type, N-terminal His-tag (pET-28a(+)), E. coli BL21 Gold(DE3); spelled EBP1 in Methods

[7] = target: T7, YqjM (Bacillus subtilis, UniProt P54550); assay: bioconversion to 7b, HPLC; assay type: biochemical; settings: 10 mM substrate, 5 μM enzyme, 11 mM NADPH, 2% DMSO, pH 7.0, 30 °C, 6 h
T7 construct: gene namA; recombinant, purified; details in supplement

[8] = target: T8, TOYE (Thermoanaerobacter pseudethanolicus, UniProt B0KAH1); assay: bioconversion to 7b, HPLC; assay type: biochemical; settings: 10 mM substrate, 5 μM enzyme, 11 mM NADPH, 2% DMSO, pH 7.0, 30 °C, 6 h
T8 construct: gene Teth39_0012; recombinant in-house enzyme; details in supplement

[9] = target: T3, GluER; assay: bioconversion to 2-hydroxyhexan-3-one, chiral GC; assay type: biochemical; settings: 10 mM substrate, 5 μM enzyme, 1.1 eq. NADPH, 2% DMSO, pH 7.0, 30 °C, 6 h
[10] = target: T4, OYE2; assay: bioconversion, GC; assay type: biochemical; settings: 10 mM substrate, 5 μM enzyme, 11 mM NADPH, 2% DMSO, pH 7.0, 30 °C, 6 h; product detected as 8c by GC
[11] = tested on: T9, CC(=O)C(=O)c1ccccc1; assay: steady-state Michaelis-Menten kinetics; assay type: biochemical, Saccharomyces cerevisiae; settings: NADPH as cofactor
T9 construct: wild type, N-terminal His-tag (pET-28a(+)), E. coli BL21 Gold(DE3), IMAC, FMN-loaded

T3 sequence (Q5FTL6 entry or part of it): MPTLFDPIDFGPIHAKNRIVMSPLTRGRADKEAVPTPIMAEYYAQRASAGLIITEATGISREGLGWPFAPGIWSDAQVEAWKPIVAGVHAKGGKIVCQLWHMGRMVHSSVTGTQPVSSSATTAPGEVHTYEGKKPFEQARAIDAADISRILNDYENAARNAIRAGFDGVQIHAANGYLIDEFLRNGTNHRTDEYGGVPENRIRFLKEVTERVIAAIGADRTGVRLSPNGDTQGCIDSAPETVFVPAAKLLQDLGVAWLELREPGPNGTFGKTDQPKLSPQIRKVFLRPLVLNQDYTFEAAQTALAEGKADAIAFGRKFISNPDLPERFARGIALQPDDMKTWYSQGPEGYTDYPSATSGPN
T4 sequence (Q03558 whole entry): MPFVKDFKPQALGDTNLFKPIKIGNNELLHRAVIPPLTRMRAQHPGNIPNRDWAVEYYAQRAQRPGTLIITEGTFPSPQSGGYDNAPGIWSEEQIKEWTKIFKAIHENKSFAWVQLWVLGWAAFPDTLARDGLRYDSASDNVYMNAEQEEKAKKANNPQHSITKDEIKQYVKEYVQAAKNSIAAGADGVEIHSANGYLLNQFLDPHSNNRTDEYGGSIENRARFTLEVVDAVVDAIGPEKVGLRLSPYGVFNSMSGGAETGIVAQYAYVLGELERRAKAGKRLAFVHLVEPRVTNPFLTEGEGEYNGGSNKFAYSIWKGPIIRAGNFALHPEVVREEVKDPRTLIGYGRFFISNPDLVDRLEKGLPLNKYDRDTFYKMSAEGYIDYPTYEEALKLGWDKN
T2 sequence (Q9R9V9 entry or part of it): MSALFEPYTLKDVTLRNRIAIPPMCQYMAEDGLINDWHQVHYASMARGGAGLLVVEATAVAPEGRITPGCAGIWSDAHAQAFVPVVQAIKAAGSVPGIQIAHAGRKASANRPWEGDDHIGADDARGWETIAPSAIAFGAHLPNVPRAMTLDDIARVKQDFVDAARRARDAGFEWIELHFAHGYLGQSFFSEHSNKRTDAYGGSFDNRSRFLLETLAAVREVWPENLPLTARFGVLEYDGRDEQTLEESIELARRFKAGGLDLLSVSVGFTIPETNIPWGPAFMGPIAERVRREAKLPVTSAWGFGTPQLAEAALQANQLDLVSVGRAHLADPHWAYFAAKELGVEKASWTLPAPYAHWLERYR
T5 sequence (P71278 entry or part of it): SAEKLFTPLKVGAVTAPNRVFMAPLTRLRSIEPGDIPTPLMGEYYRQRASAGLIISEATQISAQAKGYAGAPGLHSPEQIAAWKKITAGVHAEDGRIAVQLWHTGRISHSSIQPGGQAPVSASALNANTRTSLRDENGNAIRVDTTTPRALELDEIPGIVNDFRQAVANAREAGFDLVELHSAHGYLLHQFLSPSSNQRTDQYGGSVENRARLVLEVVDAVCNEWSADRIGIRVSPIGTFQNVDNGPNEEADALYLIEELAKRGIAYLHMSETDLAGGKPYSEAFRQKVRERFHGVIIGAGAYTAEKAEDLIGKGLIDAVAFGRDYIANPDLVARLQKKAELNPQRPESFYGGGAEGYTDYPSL
T8 sequence (B0KAH1 entry or part of it): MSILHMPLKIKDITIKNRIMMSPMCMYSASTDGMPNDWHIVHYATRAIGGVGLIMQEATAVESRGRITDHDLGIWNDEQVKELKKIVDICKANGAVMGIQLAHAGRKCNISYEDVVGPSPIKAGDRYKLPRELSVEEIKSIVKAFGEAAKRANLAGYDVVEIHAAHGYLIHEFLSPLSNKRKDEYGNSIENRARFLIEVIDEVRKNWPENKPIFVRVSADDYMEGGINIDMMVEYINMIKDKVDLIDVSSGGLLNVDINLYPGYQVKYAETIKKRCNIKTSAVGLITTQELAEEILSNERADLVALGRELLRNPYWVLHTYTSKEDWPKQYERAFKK
T6 sequence (A0A1D8PPK1 whole entry): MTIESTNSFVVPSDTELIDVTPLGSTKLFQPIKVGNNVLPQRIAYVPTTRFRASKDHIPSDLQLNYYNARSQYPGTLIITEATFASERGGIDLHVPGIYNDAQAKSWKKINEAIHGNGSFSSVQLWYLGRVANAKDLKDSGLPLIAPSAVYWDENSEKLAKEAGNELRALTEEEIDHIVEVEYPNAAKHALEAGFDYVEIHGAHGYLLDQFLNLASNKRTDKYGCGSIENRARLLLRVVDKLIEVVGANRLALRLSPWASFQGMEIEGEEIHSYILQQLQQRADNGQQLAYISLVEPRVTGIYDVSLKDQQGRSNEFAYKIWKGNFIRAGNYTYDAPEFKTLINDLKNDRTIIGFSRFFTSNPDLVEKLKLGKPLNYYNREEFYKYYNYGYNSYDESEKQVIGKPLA
T7 sequence (P54550 2-338): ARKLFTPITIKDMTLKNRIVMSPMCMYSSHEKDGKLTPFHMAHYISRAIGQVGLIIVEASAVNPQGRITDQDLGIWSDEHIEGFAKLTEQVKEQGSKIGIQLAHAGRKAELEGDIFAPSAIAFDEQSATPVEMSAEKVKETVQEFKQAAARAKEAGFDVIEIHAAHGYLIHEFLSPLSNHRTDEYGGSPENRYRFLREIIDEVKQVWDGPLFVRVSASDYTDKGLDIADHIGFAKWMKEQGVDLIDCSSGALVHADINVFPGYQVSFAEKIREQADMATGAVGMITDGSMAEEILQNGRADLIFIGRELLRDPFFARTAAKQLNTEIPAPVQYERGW

Compound: CC(=O)C(=O)c1ccccc1 [7a, 1-phenyl-1,2-propanedione]
- bioconversion to 7b, HPLC [1]: class III (TsOYE, XenA, TOYE, YqjM)
- bioconversion to 7b, HPLC [2]: class III (TsOYE, XenA, TOYE, YqjM)
- bioconversion to 7b and 7c, HPLC / GC [3]: GluER was the most versatile ERED, able to reduce 1a–5a, 7a, and 8a
- bioconversion to 7b, HPLC [4]: Nine of the enzymes produced the single product 7b
- bioconversion to 7b, HPLC [5]: Nine of the enzymes produced the single product 7b; class I (PETNR, NCR)
- bioconversion to 7b, HPLC [6]: class II (OYE3, OYE2, EPB1)
- bioconversion to 7b, HPLC [7]: class III (TsOYE, XenA, TOYE, YqjM)
- bioconversion to 7b, HPLC [8]: class III (TsOYE, XenA, TOYE, YqjM)

- % conversion [9]: 19%
Compound: CCCC(=O)C(C)=O [2a, 2,3-hexanedione]

Compound: O=CC(=O)c1ccccc1 [8a, phenylglyoxal]
- bioconversion, GC [10]: could confirm excellent conversions with 8a

Compound: OYE3 (Saccharomyces cerevisiae S288C)
- Km [11]: 2460 ± 250 µM
- kcat [11]: 0.71 ± 0.03 s⁻¹

Source: PMC11494505, “Asymmetric Monoreduction of α,β-Dicarbonyls to α-Hydroxy Carbonyls by Ene Reductases” (ACS Catalysis, 2024)
